Data published in US20250042889A1, “3CLPRO PROTEASE INHIBITOR” (SHANGHAI QILU PHARMACEUTICAL RESEARCH AND DEVELOPMENT …, priority 2021, published 2025).

Molecular target: SARS-COV-2 3CLpro/Mpro protease (Severe acute respiratory syndrome coronavirus 2 (2019-nCoV) (SARS-CoV-2), UniProt P0DTD1)
Experiment: Inhibitory effect on SARS-COV-2 3CLpro/Mpro protease by fluorescence resonance energy transfer
Assay type: biochemical
Conditions: activity intervals A-D, read-out: IC50 (nM), Inhibition on SARS-CoV-2 3CLpro/Mpro protease

| SMILES | IC50 [nM] |
| --- | --- |
| CNc1cncc(C(=O)N2C[C@H](Nc3c(C(=O)N4C[C@@H](C)O[C@@H](C)C4)cc(Br)cc3[N+](=O)[O-])C[C@H]2C(=O)Nc2cc(Cl)ncn2)c1 [Example 441, (2S,4R)-4-((4-bromo-2-((2R,6S)-2,6-dimethylmorpholin-4-carbonyl)-6-nitrophenyl)amino)-N-(6-chloropyrimidin-4-yl)-1-(5-(methylamino)nicotinoyl) pyrrolidine-2-formamide] | 10 to 50 |
| CNc1cncc(C(=O)N2C[C@H](Nc3c(C(=O)N4C[C@@H](C)O[C@@H](C)C4)cc(Br)cc3[N+](=O)[O-])C[C@H]2C(=O)Nc2ccnc(Cl)n2)c1 [Example 442, (2S,4R)-4-((4-bromo-2-((2R,6S)-2,6-dimethylmorpholin-4-carbonyl)-6-nitrophenyl)amino)-N-(2-chloropyrimidin-4-yl)-1-(5-(methylamino)nicotinoyl) pyrrolidine-2-formamide] | 10 to 50 |
| [2H]C([2H])([2H])Nc1cncc(C(=O)N2C[C@H](Nc3c(C(=O)N4C[C@@H](C)O[C@@H](C)C4)cc(Br)cc3[N+](=O)[O-])[C@@H](OC)C2)c1 [Example 443] | 10 to 50 |
| CO[C@H]1CN(C(=O)c2cncc3[nH]nc(Cl)c23)C[C@@H]1Nc1c(C(=O)N2C[C@@H](C)O[C@@H](C)C2)cc(Br)cc1[N+](=O)[O-] [Example 444, (5-Bromo-2-(((3S,4S)-1-(3-chloro-1H-pyrazolo[3,4-c]pyridin-4-carbonyl)-4-methoxypyrrolidin-3-yl)amino)-3-nitrophenyl)((2S,6R)-2,6-dimethylmorpholinyl)methanone] | 10 to 50 |
| CNc1cncc(C(=O)N2C[C@H](Nc3c(C(=O)N4C[C@@H](C)O[C@@H](C)C4)cc(Br)cc3[N+](=O)[O-])C[C@H]2C(=O)Nc2ncc(Br)cn2)c1 [Example 445, (2S,4R)-4-((4-bromo-2-((2R,6S)-2,6-dimethylmorpholin-4-carbonyl)-6-nitrophenyl)amino)-N-(5-bromopyrimidin-2-yl)-1-(5-(methylamino)nicotinoyl) pyrrolidine-2-formamide] | 50 to 100 |
| CNc1cncc(C(=O)N2C[C@H](Nc3c(C(=O)N4C[C@@H](C)O[C@@H](C)C4)cc(Br)cc3[N+](=O)[O-])C[C@@H](OCCOC)C2)c1 [Example 446] | 10 to 50 |
| CNc1cncc(C(=O)N2C[C@H](Nc3c(C(=O)N4C[C@@H](C)O[C@@H](C)C4)cc(Br)cc3[N+](=O)[O-])C[C@H]2COC)c1 [Example 447] | 50 to 100 |
| CNc1cncc(C(=O)N2C[C@H](Nc3c(C(=O)N4C[C@@H](C)O[C@@H](C)C4)cc(Br)cc3[N+](=O)[O-])C[C@@H](O[C@@H]3CCOC3)C2)c1 [Example 448] | 10 to 50 |
| CO[C@H]1CN(C(=O)c2cncc3[nH]c(C)nc23)C[C@@H]1Nc1c(C(=O)N2C[C@@H](C)O[C@@H](C)C2)cc(Br)cc1[N+](=O)[O-] [Example 449, (5-Bromo-2-(((3S,4S)-4-methoxy-1-(2-methyl-3H-imidazol[4,5-c]pyridin-7-carbonyl)pyrrolidin-3-yl)amino)-3-nitrophenyl)((2S,6R)-2,6-dimethylmorpholinyl)methanone] | 50 to 100 |
| CNc1cncc(C(=O)N2C[C@H](Nc3c(C(=O)N4C[C@@H](C)O[C@@H](C)C4)cc(Br)cc3[N+](=O)[O-])C[C@H]2C(=O)NCc2ccnc(C(F)(F)F)n2)c1 [Example 450, (2S,4R)-4-((4-bromo-2-((2R,6S)-2,6-dimethylmorpholin-4-carbonyl)-6-nitrophenyl)amino)-1-(5-(methylamino)nicotinoyl)-N-((2-(trifluoromethyl)pyrimidin-4-yl)methyl) pyrrolidine-2-formamide] | 10 to 50 |
| [2H]C([2H])([2H])Nc1cncc(C(=O)N2C[C@H](Nc3c(C(=O)N4C[C@@H](C)O[C@@H](C)C4)cc(Br)cc3[N+](=O)[O-])[C@@H](OC([2H])([2H])[2H])C2)c1 [Example 451] | 10 to 50 |
